Laboratory results from patent US9758401B2, “Digestion of biosolids in wastewater” (BCR ENVIRONMENTAL CORPORATION, priority 2009, dated 2017).

Legend:
[1] = tested on: Waste activated sludge (WAS); assay: Waste activated sludge solubilization by chlorine dioxide in digesters (soluble COD, NH4, PO4, volatile solids)
Method: Waste activated sludge (WAS) was obtained from a local municipal WWTP which removes cBOD only and uses a pure oxygen system. In order to achieve similar experiment conditions and be consistent with the previous pilot experiment, the solids concentration was adjusted to approximately 7 g/L. Three digesters were set up and treated with chlorine dioxide dosages of 100, 150 and 200 mg/L respectively. The digesters were operated for 24 hours. Samples were taken at time intervals of 10 min, 1 h, 6 h, 12 h and 24 h to represent different contact time.
This confirmed that chlorine dioxide contact time is the key factor for WAS solubilization. The increased soluble COD concentration can be expressed as 10-11% of TCOD which is quite significant. It was also observed that soluble COD concentration at contacting time of 6 hr was approximately 55-66% of the soluble COD at time 24 hrs. […] The increase of soluble COD corresponded to the volatile solids destruction of 4-6% with different chlorine dioxide treatment dosage.
This is considered insignificant. The PO4 increase was much higher and equaled 16 to 28.3 mg P/L after 24 h. Higher phosphorus than nitrogen release can be attributed to the chlorine dioxide treatment which breaks down the cell walls resulting in the release of unbound orthophosphate PO4—P. The nitrogen in the cells is in the form of organic nitrogen (amino acids) and enzymes are required to convert organic nitrogen to ammonia nitrogen. The low pH resulting from the chlorine dioxide treatment may have deactivated the enzyme activity, therefore no/insignificant NH4—N increase was detected.

[2] = tested on: fecal coliform; assay: Secondary sludge full-scale test: fecal coliform reduction by chlorine dioxide; type: cell-based; conditions: for Fecal coliform: secondary sludge, 10 minutes contact time
Method: Treatment of non-digested wastewater sludge with chlorine dioxide allows the material to meet Class B pathogen reduction requirements prior to digestion by reducing the fecal coliform concentrations to levels much lower than the Class B standard (<2,000,000 fecal coliform bacteria) with less than 15 minutes contact time. The resulting biosolids cake has no odor.
In this test, chlorine dioxide was generated on-site, and was injected (at varying concentrations) into a 100 gpm sludge flow passing through a 4 inch diameter pipe. The pipe length was sufficient to allow 10 minutes of contact time between the sludge and the chlorine dioxide prior to dewatering the material.

[3] = tested on: anaerobic digester; assay: Methane production in anaerobic digestion of chlorine dioxide pretreated WAS; conditions: versus non-pretreated WAS, measured
Method: Treatment of non-digested wastewater sludge with chlorine dioxide to solubilized the sludge and make nutrients bio-available and then feeding this material into an established anaerobic digester once the chlorine dioxide residual has been reduced improves gas (methane) production in an anaerobic digester. A generally accepted estimate for methane production at 35° C. is 0.25 kg methane per kg COD consumed. One kmol of methane is equivalent with a mass of 16 kg. Per definition, the COD equivalent of 1 kmol of methane is the mass of the amount of oxygen required for complete oxidation according to the formula: CH4+2O2→CO2+2H2O The mass of the 2O2 is 2 kmol of oxygen or 64 kg. Thus 64 kg Oxygen Demand is equivalent with 16 kg of methane, or 1 kg of oxygen demand (COD) is equivalent with 16/64=0.25 kg methane.
This increase in soluble COD represents 10-11% of the total COD concentration of the sludge, and represents a 2000% increase in soluble COD. The inventors believe that the higher the s-COD the higher capacity for methane production. The resulting increase in methane production as a result of this enhancement of anaerobic digestion has been measured as a greater than 50% increase utilizing this method, and is expected to be in the range of 100% or more over non-pretreated WAS. […]

[4] = chlorine dioxide 100-200 mg/L, 24 h

[O][Cl+][O-] [chlorine dioxide]
soluble COD at contact time 6 hr as share of soluble COD at 24 hrs ([1]; chlorine dioxide 100-200 mg/L): 55-66% | increase in soluble COD [1, 4]: 2000% | increase in soluble COD as share of total COD (TCOD) [1, 4]: 10-11% | volatile solids destruction ([1]; different chlorine dioxide treatment dosage (100-200 mg/L)): 4-6% | fecal coliform concentrations after treatment (Class B standard) ([2]; non-digested wastewater sludge, less than 15 minutes contact time): < 2,000,000 fecal coliform bacteria | Fecal coliform ([2]; ClO2 dose rate 64 mg/L): 1,800 MPN/g | Fecal coliform ([2]; ClO2 dose rate 80 mg/L): BDL | Fecal coliform ([2]; ClO2 dose rate 96 mg/L): BDL | Fecal coliform ([2]; ClO2 dose rate 128 mg/L): BDL | Fecal coliform ([2]; ClO2 dose rate 160 mg/L): BDL* | increase in methane production [3]: greater than 50%
